We go through 13 compounds from publication PMC6891541, “α-Glucosidase and Pancreatic Lipase Inhibitory Activities of Diterpenes from Indian Mango Ginger (Curcuma amada Roxb.) and Its Derivatives” (Molecules, 2019).

In one data set the target is T1, porcine pancreas lipase (Sus scrofa, UniProt P00591).
T1 construct: from tissue; host or cells: porcine pancreas
T1 sequence (P00591 1-450): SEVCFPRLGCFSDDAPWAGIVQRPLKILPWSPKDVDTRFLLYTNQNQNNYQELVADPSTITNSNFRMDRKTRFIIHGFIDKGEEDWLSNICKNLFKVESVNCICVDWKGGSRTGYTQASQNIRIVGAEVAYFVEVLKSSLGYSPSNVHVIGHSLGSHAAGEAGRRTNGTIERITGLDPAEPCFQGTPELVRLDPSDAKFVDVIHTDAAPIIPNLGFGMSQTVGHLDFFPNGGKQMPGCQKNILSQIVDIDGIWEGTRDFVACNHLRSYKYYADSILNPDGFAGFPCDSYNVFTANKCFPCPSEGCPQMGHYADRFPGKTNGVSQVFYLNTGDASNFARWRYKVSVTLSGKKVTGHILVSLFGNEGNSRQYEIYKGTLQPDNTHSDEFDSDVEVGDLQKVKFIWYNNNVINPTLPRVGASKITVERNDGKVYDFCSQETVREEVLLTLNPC
Kind of data set: pancreatic lipase inhibition, 4-methylumbelliferyl oleate, HPLC fluorescence detection of 4-MU. The format is biochemical. The conditions noted are these: for IC50: porcine pancreas lipase, 4-methylumbelliferyl oleate substrate, read-out: IC Lipase. The protocol:
For pancreatic lipase inhibitory enzymatic assays, a slightly modified method from that described in a previous paper was used. […] The test sample solution (50 µL) was added to 50 unit/mL of porcine pancreas lipase suspension (50 µL). […] The enzymatic reaction was carried out at 37 °C for 120 min and the reaction was terminated by the addition of citrate buffer (200 µL). After that, the intensity of fluorescent enzymatic product 4-MU was measured by HPLC with fluorescence detection. […] The inhibition percentage was calculated using Equation (2):Inhibition% = [Area (test sample) − Area (sample blank)/Area (control)] × 100(2)
Tetrahydrolipstatin was used as a positive control (Figure 5 and Figure 6).

Data set [1] concerns cancer cell lines such as MCF-7, KB and A549. Also on record: method as in PMID 21629182. The following applies: cited from earlier work.
In data set [2] the target is rat intestinal α-glucosidase. Kind of data set: α-glucosidase inhibition, rat intestinal acetone powder, pNPG hydrolysis. The format is biochemical. The conditions noted are these: for IC50: pNPG substrate, read-out: IC α-Glucosidase; for α-glucosidase inhibitory activity (in words): rat intestinal α-glucosidase. The protocol: The α-glucosidase activity was calculated by measuring the amount of p-nitrophenol hydrolyzed from pNPG by α-glucosidase. Tested enzyme was prepared using α-glucosidase included in commercial rat intestinal acetone powder (Sigma-Aldrich). […] Sonication was performed 20 times each for durations of 10 s. After centrifugation at 7000× g for 15 min at 4 °C, the supernatant was separated from the pellet. The supernatant was diluted two-fold with 0.1 M phosphate buffer at pH 6.9. The test sample was dissolved in DMSO and then diluted in the same volume of 0.1 M phosphate buffer. The test sample solution (10 µL) was added to a crude enzyme suspension (40 µL). The solution was preincubated at 37 °C for 10 min, then 2.5 mM of pNPG dissolved in 0.1 M phosphate buffer (50 µL) was added to the reaction mixture as the substrate. The enzymatic reaction was carried out at 37 °C for 30 min and the reaction was terminated by the addition of 0.1 M Na2CO3 aq. (900 µL). The absorbance at 405 nm was determined. […] The acarbose was used as a positive control (Figure 4).

For the next data set, the system named is Hep G2 cells. Also on record: method as in PMID 30034597. The following applies: cited from earlier work.
A further data set concerns COX2. Also on record: method as in doi:10.1016/j.foodchem.2010.06.064. The following applies: cited from earlier work.
Another data set relates to human 5-lipoxygenase. The conditions noted are these: cited from earlier work.
For a further data set, the system named is α-glucosidase. Also on record: method as in PMID 18179176. The following applies: cited from earlier work.
The mark [3] stands for this setting: α-glucosidase from rat intestine acetone powder.

On to `C=C1CC[C@H]2C(C)(C)CCC[C@]2(C)[C@H]1CC=C(C=O)CC(=O)O` (stereo in doubt) [Compound 8, Zerumin A], for which the IC50 at porcine pancreas lipase was 73.4 µM. Further, in data set [1], the “cytotoxicity against cancer cell lines (in words)” value is given as “strong cytotoxicity”.

Consider `C[C@H]1O[C@H](O[C@H]2[C@H](O)[C@@H](O)[C@@H](O[C@H]3[C@H](O)[C@@H](O)C(O)O[C@@H]3CO)O[C@@H]2CO)[C@H](O)[C@@H](O)[C@@H]1N[C@H]1C=C(CO)[C@@H](O)[C@H](O)[C@H]1O` (stereo partly drawn) [Acarbose, acarbose, reference compound], for which, in data set [2] (setting [3]), the “IC50 α-glucosidase” value is reported as 247 ppm and the IC50 turned out to be 380 µM.

On to `C=C1CCC2C(C)(C)CCC[C@]2(C)[C@H]1C/C=C(/C=O)CC=O` (stereo partly drawn) [Compound 1, (E)-Labda-8(17),12-diene-15,16-dial], for which the “cytotoxicity in Hep G2 cells (in words)” value in the data set with Hep G2 cells is recorded as “without cytotoxicity”. The “inhibition of COX2 compared with COX1 (in words)” value with COX2 is recorded as “greater inhibition of COX2 than COX1”. For the same compound, in data set [2], the “α-glucosidase inhibitory activity (in words)” value is reported as “strongest rat intestinal α-glucosidase inhibitory activity”. In addition, the IC50 in data set [2] (setting [3]) was 8740 µM. Besides, the “human 5-lipoxygenase inhibition (in words)” value in the data set with human 5-lipoxygenase was “inhibited human 5-lipoxygenase”. Besides, the “cytotoxicity against cancer cell lines (in words)” value in data set [1] was “strong cytotoxicity”.

For the compound `C=C1CCC2C(C)(C)CCCC2(C)C1C=CC(C)=O` (stereo not drawn) [Compound 2], the “α-glucosidase inhibitory activity (in words)” value in data set [2] is “strong α-glucosidase inhibition”. The IC50 came to 17500 µM in data set [2] (setting [3]) and 14.8 µM on porcine pancreas lipase. The “cytotoxicity against cancer cell lines (in words)” value in data set [1] is given as “did not show cytotoxicity”.

As for `C=C1CCC2C(C)(C)CCC[C@]2(C)[C@H]1C/C=C(/CO)CCO` (stereo partly drawn) [Compound 4, (E)-Labda-8(17),12-diene-15,16-diol], the “α-glucosidase inhibitory activity (in words)” value in data set [2] is recorded as “strong α-glucosidase inhibition”. The IC50 is 11600 µM in data set [2] (setting [3]) and 258 µM at porcine pancreas lipase.

In the case of `C=C1CCC2C(C)(C)CCC[C@]2(C)[C@H]1C/C=C(\CCOC(C)=O)COC(C)=O` (stereo partly drawn) [Compound 5, 15,16-Diacetoxyl-(E)-labda-8(17),12-diene], the IC50 at porcine pancreas lipase turned out to be 111 µM.

Regarding `C=C1CCC2C(C)(C)CCC[C@]2(C)[C@H]1C/C=C(/CO)CCOC(C)=O` (stereo partly drawn) [Compound 6, 15-Acetoxy-(E)-labda-8(17),12-diene-16-ol], the IC50 at porcine pancreas lipase came to 102 µM.

In the case of `C=C1CCC2C(C)(C)CCC[C@]2(C)[C@H]1C/C=C(\CCO)COC(C)=O` (stereo partly drawn) [Compound 7, 16-Acetoxy-(E)-labda-8(17),12-diene-15-ol], the IC50 on porcine pancreas lipase worked out at 222 µM.

In the case of `C=C1CCC2C(C)(C)CCC[C@]2(C)[C@H]1C/C=C(\CC(=O)O)C(=O)O` (stereo partly drawn) [Compound 9, (E)-Labda-8(17),12-diene-15,16-dicarboxylic acid], the IC50 on porcine pancreas lipase worked out at 76.8 µM.

As to `C=C1CCC2C(C)(C)CCC[C@]2(C)[C@H]1C/C=C(\CC(=O)OC)C(=O)OC` (stereo partly drawn) [Compound 10, (E)-Labda-8(17),12-diene-15,16-dimethylester], on porcine pancreas lipase, the IC50 worked out at 119 µM.

As for `CCCCCCCCCCC[C@@H](C[C@@H]1OC(=O)[C@H]1CCCCCC)OC(=O)[C@H](CC(C)C)NC=O` [Tetrahydrolipstatin, reference compound], the Lipase inhibition at porcine pancreas lipase (at 5.0 Nm, positive control) was 94% (5.0 Nm).

As for `CC1(C)CCC[C@]2(C)[C@@H](C=O)C(C=O)=CC[C@@H]12` [polygodial, reference compound], in the data set with α-glucosidase, the “α-glucosidase inhibition (in words)” value is recorded as “did not show α-glucosidase inhibition”. Besides, the “human 5-lipoxygenase inhibition (in words)” value in the data set on human 5-lipoxygenase is listed as “inhibited human 5-lipoxygenase”.

Turning to Albicanal [Compound 3], in data set [2], the “α-glucosidase inhibitory activity (in words)” value is reported as “did not show any such activity”. On porcine pancreas lipase, the IC50 came to 666 µM.
